Literature values as cited in patent US20120070472A1, “CHRONOTHERAPEUTIC COMPOSITIONS AND METHODS OF THEIR USE” (Circ Pharma Research & Development Limited, priority 2004, published 2012).

conditions: i/v

Row | SMILES | Elimination Half-Life
1 | COc1ccccc1OCCNCC(O)COc1cccc2[nH]c3ccccc3c12 (stereo not drawn) [Carvedilol] | 2.4 h

same assay, conditions: in vivo

Row | SMILES | Elimination Half-Life
2 | C=CCOc1ccccc1OCC(O)CNC(C)C (stereo not drawn) [Oxprenolol] | 2.5 h
3 | COc1ccc([C@@H]2Sc3ccccc3N(CCN(C)C)C(=O)[C@@H]2OC(C)=O)cc1 [Diltiazem] | 3.7 h
4 | CC(C)(C)NC[C@H](O)COc1nsnc1N1CCOCC1 [Timolol] | 4.1 h
5 | CC(C)NCC(O)COc1cccc2ccccc12 (stereo not drawn) [Propranolol] | 3.9 h
6 | C=CCc1ccccc1OCC(O)CNC(C)C (stereo not drawn) [Alprenolol] | 2.5 h
7 | O=C(NCCO[N+](=O)[O-])c1cccnc1 [Nicorandil] | 1.1 h
8 | CCN(CC)CCNC(=O)c1ccc(NC(C)=O)cc1 [n-Acetylprocainamide] | 6.0 h
9 | CC(C)NCC(O)COc1cccc2[nH]ccc12 (stereo not drawn) [Pindolol] | 3.6 h
10 | CC(=O)S[C@@H]1CC2=CC(=O)CC[C@]2(C)[C@H]2CC[C@@]3(C)[C@@H](CC[C@@]34CCC(=O)O4)[C@H]12 [Spironolactone] | 1.6 h

The next lines start with the values.

Row | Elimination Half-Life | SMILES
11 | 2.5 h | NS(=O)(=O)c1cc2c(cc1Cl)NCNS2(=O)=O [Hydrochlorothiazide]
12 | 1.5 h | NS(=O)(=O)c1cc2c(cc1Cl)N=CNS2(=O)=O [Chlorothiazide]
13 | 3.8 h | COC(=O)C1=C(C)NC(C)=C(C(=O)OC(C)C)C1c1cccc2nonc12 (stereo not drawn) [Isradipine]
14 | 4.9 h | CC(CCc1ccccc1)NCC(O)c1ccc(O)c(C(N)=O)c1 (stereo not drawn) [Labetalol]
15 | 2.7 h | CCCC(=O)Nc1ccc(OCC(O)CNC(C)C)c(C(C)=O)c1 (stereo not drawn) [Acebutolol]
16 | 1.0 h | NNc1nncc2ccccc12 [Hydralazine]
17 | 6.0 h | CC(C)N(CCC(C(N)=O)(c1ccccc1)c1ccccn1)C(C)C (stereo not drawn) [Disopyramide]

same assay, conditions: po

Row | SMILES | Elimination Half-Life
18 | COc1ccccc1OCCNCC(O)COc1cccc2[nH]c3ccccc3c12 (stereo not drawn) [Carvedilol] | 6.4 h
